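All cell lines were grown in 96-well plates and treated with compound for 48 hours. At the GI50, growth is halved. TGI marks complete inhibition of growth.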
Columns and labels:
Test in all cases: NCI tumour cell line growth inhibition, 48 h
[1] = system: P388/ADR leukemia
[2] = system: SN12K1 renal
[3] = system: P388 leukemia
[4] = system: KM20L2 colon
[5] = system: DMS 114 small cell lung
[6] = system: HOP-18 NSCLC
[7] = system: DMS 273 small cell lung
[8] = system: XF 498 CNS
[9] = system: M19-MEL melanoma
[10] = system: RXF-631 renal
[11] = system: LXFL 529 NSCLC

Row | Compound | TGI [1] | TGI [2] | TGI [3] | TGI [4] | TGI [5] | TGI [6] | TGI [7] | TGI [8] | TGI [9] | TGI [10] | TGI [11] | GI50 [4] | GI50 [5] | GI50 [6] | GI50 [7] | GI50 [9] | GI50 [11]
1 | O=P1(c2ccccc2)Nc2ccccc2SSc2ccccc2N1 | 31.2 µM | 30.7 µM | > 38.6 µM | 33.7 µM | 43 µM | 36.6 µM | 33.7 µM | 32.7 µM | 34.4 µM |  |  |  |  |  |  |  | 
2 | CCCOC(=O)CNC(=O)OC(C)(C)C |  |  |  | > 100 µM | > 100 µM | > 100 µM | > 100 µM | > 100 µM | > 100 µM | > 100 µM | > 100 µM |  |  |  |  |  | 
3 | COc1ccc(/C(Cl)=C(\C=O)c2ccc(OC)cc2)cc1 |  |  |  | > 100 µM | > 100 µM | > 100 µM | > 100 µM |  | > 100 µM | > 100 µM | > 100 µM |  |  |  |  |  | 
4 | N=C1C(=N)c2ccccc2-c2ccccc21.N=C1C(=N)c2ccccc2-c2ccccc21.N=C1C(=N)c2ccccc2-c2ccccc21.[Cl-].[Ru+2] |  |  |  | 13.2 µM | 3.07 µM | 7.76 µM | 5.45 µM |  | 2.86 µM |  | 3.08 µM | 5.37 µM | 1.63 µM | 3.14 µM | 2.15 µM | 1.46 µM | 1.61 µM
5 | O=C(Nc1ccc([N+](=O)[O-])cc1[N+](=O)[O-])C(=O)C(C(=O)c1ccc2ccccc2c1)C1OC(=O)c2ccccc21 (configuration not stated) |  |  |  | 61.9 µM | 45.1 µM |  | 61.4 µM |  | 29.6 µM | 66.3 µM | 26 µM |  |  |  |  |  | 
6 | CN(C)CCNC(=O)c1cccc2ccc(-c3ccc(F)cc3)nc12 | 5.17 µM | 12.2 µM | 3.66 µM | 20.4 µM | 17.8 µM | 54.1 µM | 11.8 µM | 10.2 µM | 15.9 µM |  |  |  |  |  |  |  | 
7 | Nc1n[nH]c(=O)c2c1c(I)cn2C1OC(CO)C(O)C1O (configuration not stated) |  |  |  | > 100 µM | 6.62 µM | > 100 µM | 2.63 µM | 8.3 µM |  | 7.36 µM | > 100 µM |  |  |  |  |  | 
8 | COc1cc(/C=C/C(=O)Oc2ccc(NC(C)=O)cc2)ccc1C(=O)O/C=C/c1ccccc1 | > 100 µM | > 100 µM | > 100 µM | > 100 µM | > 100 µM | > 100 µM | > 100 µM | > 100 µM | > 100 µM |  |  |  |  |  |  |  | 
